In US20130303533A1, “AZOLOPYRIDINE AND AZOLOPYRIMIDINE COMPOUNDS AND METHODS OF USE THEREOF” (AMBIT BIOSCIENCES CORPORATION, priority 2010, published 2013):

How the values were obtained:
JAK2 = target: T1, JAK2 (Homo sapiens, UniProt O60674); assay: Competition binding assay to determine binding constants (Kd), JAK2
T1 construct: made in house; host or cells: T7 phage display or HEK-293 cells (alternatives)
From the text: (§1) Competition Binding Assay to Determine Binding Constants (Kd) of the Compounds Against JAK Kinases
(§2) Competition binding assays used herein were developed, validated and performed as described in Fabian et al., Nature Biotechnology 2005, 23, 329-336. Kinases were produced as fusions to T7 phage (See, Fabian et al. or WO04/015142) or alternatively, the kinases were expressed in HEK-293 cells and subsequently tagged with DNA for PCR detection (See, WO08/005,310). For the binding assays, streptavidin-coated magnetic beads were treated with biotinylated affinity ligands for 30 min at rt to generate affinity resins. The liganded beads were blocked with excess biotin and washed with blocking buffer (SeaBlock (Pierce), 1% BSA, 0.05% Tween 20, 1 mM DTT) to remove unbound ligand and to reduce non-specific binding. Binding reactions were assembled by combining kinase, liganded affinity beads, and test compounds in 1× binding buffer (20% SeaBlock, 0.17×PBS, 0.05% Tween 20, 6 mM DTT). Test compounds were prepared as 100× stocks in DMSO and rapidly diluted into the aqueous environment. DMSO was added to control assays lacking a test compound. Primary screen interactions were performed in polypropylene 384-well plates in a final volume of 34 μL, while Kd determinations were performed in polystyrene 96-well plates in a final volume of 135 μL. The assay plates were incubated at room temperature with shaking for 1 hour, long enough for binding reactions to reach equilibrium, and the affinity beads were washed extensively with wash buffer (1×PBS, 0.05% Tween 20) to remove unbound protein. The beads were then resuspended in elution buffer (1×PBS, 0.05% Tween 20, 2 μM non-biotinylated affinity ligand) and incubated at room temperature with shaking for 30 min. The kinase concentration in the eluates was measured by quantitative PCR. Each kinase was tested individually against each compound. Kds were determined using eleven serial threefold dilutions. A selectivity score, which is a quantitative measure of selectivity of a compound against a panel of enzymes, may be calculated for a compound by dividing the number of enzymes for which a compound meets a set criteria, (for example, a binding constant of 100 nM or less), by the total number of enzymes tested.

JAK3 = target: T2, JAK3 (Homo sapiens, UniProt P52333); assay: Competition binding assay to determine binding constants (Kd), JAK3
T2 construct: made in house; host or cells: T7 phage display or HEK-293 cells (alternatives)
T2 sequence (P52333 1-1124): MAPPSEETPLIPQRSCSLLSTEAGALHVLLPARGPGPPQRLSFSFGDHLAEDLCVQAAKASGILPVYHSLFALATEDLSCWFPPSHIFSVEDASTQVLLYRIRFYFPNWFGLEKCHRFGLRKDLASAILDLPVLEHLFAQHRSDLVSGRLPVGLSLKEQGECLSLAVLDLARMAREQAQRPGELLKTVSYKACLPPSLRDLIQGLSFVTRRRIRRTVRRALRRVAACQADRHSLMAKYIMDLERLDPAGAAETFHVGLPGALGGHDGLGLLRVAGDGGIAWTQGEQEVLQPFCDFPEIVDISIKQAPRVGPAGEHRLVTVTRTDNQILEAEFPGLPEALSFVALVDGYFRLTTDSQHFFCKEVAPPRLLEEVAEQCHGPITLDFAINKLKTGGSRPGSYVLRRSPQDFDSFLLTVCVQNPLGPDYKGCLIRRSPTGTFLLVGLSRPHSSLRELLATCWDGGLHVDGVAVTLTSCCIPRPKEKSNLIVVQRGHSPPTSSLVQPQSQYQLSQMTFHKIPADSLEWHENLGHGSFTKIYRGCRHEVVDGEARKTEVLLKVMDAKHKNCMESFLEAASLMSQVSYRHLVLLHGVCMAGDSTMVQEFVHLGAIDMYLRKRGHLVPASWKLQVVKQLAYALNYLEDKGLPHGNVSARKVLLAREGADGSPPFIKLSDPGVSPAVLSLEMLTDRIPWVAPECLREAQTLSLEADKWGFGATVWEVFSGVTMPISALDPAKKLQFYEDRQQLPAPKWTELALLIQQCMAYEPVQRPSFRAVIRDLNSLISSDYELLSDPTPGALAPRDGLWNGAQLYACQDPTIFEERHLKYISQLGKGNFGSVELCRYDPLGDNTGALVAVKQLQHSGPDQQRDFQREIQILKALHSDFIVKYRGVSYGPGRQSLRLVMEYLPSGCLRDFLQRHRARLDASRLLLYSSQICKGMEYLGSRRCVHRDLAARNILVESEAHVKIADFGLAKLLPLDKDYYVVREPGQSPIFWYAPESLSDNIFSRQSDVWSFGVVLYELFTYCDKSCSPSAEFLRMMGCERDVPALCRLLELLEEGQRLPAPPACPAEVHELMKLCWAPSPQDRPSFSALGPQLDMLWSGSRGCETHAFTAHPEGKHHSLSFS
From the text: as §1, §2

TYK2 = target: T3, TYK2 (Homo sapiens, UniProt P29597); assay: Competition binding assay to determine binding constants (Kd), TYK2
T3 construct: made in house; host or cells: T7 phage display or HEK-293 cells (alternatives)
From the text: as §1, §2

[1] = system: GM-CSFR/JAK2/STAT5 pathway; assay: CSTF-1 cell-based reporter assay; conditions: Homo sapiens; csTF-1 cells, GM-CSF at 2 ng/mL, 4 hours, beta-lactamase reporter; read-out: Cell Assay: CS TF-1 reporter assay IC50
Protocol: CSTF-1 Cell-Based Reporter Assay
CSTF-1 cells are derived from the human erythroleukemia cell line that is growth dependent on GM-CSF and has an intact GM-CSFR/JAK2/STAT5 pathway. The cell line contains stably integrated beta-lactamase reporter gene under the control of the […] (irf 1) response element recognized by the activated transcription factor STAT5. csTF-1 cells (Invitrogen K1219) were washed with assay media (97% OPTIMEM/0.5% dialyzed FBS/0.1 mM NEAA/1 mM Na pyr/P/S) and seeded in the same media at 5×10^5 cell/mL in T150 flask. After 16 hour incubation, cells were seeded at 2×10^5 cell/well in 50 μl volume, into Costar, clear bottom, 96-well assay plates. Serial dilutions of compounds were added to the plates with final DMSO concentration at 0.5% and GM-CSF at 2 ng/mL and the plates were then incubated at 30° C. and 5% CO2 for 4 hours. The plates were brought to room temperature before adding Substrate Mixture according to manufacturer's protocol (Invitrogen, Catalog #K1085). The assay plates containing the substrate mixture were incubated in the dark at room temperature for 2 hours. Blue and green fluorescence was measured with excitation at 409 nm and emission at 460 nm (for blue) and excitation at 409 nm and emission at 530 nm (for green) using Spectra Max Gemini EM.

T3 sequence (P29597 whole entry): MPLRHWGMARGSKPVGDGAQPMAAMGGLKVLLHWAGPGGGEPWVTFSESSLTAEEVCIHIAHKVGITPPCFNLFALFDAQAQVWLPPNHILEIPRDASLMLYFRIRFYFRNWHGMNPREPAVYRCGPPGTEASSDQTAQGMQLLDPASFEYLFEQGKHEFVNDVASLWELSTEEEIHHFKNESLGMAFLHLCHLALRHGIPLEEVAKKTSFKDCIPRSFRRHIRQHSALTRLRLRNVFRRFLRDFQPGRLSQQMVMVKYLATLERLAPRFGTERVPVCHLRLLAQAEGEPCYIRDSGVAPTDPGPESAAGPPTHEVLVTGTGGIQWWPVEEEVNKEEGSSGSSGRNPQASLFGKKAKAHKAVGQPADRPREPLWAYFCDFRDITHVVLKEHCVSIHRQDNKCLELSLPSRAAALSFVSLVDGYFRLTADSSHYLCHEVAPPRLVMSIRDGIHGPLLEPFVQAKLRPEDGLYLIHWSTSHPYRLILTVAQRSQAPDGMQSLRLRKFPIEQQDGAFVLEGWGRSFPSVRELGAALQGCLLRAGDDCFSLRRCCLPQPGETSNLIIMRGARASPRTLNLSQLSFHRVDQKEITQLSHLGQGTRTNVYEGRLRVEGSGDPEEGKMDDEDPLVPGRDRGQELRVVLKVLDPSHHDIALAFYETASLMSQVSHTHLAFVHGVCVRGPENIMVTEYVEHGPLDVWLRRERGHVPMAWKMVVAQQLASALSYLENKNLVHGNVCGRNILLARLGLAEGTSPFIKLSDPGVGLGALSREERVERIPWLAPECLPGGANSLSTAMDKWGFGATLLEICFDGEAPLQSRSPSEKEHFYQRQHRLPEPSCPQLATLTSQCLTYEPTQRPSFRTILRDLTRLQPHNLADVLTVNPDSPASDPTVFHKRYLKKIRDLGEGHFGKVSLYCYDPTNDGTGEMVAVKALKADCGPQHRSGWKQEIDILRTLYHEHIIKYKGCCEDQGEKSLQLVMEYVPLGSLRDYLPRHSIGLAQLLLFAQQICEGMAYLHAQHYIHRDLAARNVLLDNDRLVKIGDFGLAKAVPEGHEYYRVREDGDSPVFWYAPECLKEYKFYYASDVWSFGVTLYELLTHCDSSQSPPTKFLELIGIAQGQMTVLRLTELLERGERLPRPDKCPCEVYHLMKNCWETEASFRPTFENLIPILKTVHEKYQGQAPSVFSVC
T1 sequence (O60674 whole entry): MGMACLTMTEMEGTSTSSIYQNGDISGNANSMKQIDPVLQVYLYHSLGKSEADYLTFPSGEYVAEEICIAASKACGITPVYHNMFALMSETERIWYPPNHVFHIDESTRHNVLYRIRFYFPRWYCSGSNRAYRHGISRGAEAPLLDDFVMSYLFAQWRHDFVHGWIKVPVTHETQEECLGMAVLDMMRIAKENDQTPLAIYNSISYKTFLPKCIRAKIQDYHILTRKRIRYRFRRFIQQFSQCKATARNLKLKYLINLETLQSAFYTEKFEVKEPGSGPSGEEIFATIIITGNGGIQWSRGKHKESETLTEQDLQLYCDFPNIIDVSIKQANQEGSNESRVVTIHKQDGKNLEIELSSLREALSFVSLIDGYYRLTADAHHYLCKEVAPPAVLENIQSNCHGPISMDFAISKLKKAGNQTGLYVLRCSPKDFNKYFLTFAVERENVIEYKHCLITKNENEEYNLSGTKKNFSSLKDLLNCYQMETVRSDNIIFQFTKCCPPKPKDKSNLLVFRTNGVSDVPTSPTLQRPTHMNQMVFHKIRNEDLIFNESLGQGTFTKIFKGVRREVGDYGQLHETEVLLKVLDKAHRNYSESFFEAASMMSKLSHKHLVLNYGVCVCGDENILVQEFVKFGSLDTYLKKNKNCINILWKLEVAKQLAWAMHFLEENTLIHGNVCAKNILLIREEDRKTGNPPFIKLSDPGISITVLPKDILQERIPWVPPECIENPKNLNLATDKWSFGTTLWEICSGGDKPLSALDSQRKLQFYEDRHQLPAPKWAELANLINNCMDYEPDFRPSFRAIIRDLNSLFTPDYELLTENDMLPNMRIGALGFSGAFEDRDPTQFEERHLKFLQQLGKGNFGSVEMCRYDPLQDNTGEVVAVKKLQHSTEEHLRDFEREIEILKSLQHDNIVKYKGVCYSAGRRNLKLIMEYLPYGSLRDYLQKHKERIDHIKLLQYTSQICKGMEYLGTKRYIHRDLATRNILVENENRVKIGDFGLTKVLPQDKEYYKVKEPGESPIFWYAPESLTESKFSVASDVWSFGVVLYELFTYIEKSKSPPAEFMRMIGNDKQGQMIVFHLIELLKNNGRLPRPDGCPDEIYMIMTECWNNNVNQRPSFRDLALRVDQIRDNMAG

| Structure (SMILES) | Kd (JAK2) [nM] | Kd (JAK3) [nM] | Kd (TYK2) [nM] | IC50 [1] [nM] |
| --- | --- | --- | --- | --- |
| Cc1cc(Nc2nc(C(F)(F)c3ccc(F)cn3)nc3c2cnn3C)n[nH]1 [Example 34, 6-(difluoro(5-fluoropyridin-2-yl)methyl)-1-methyl-N-(5-methyl-1H-pyrazol-3-yl)-1H-pyrazolo[3,4-d]pyrimidin-4-amine] | ≤ 1 | 10 to 100 | ≤ 10 | 100 to 500 |
| CSc1nc2nc(C(F)(F)c3ccc(F)cc3)nc(Nc3cc(C)[nH]n3)c2s1 [Example 35, 5-(difluoro(4-fluorophenyl)methyl)-N-(5-methyl-1H-pyrazol-3-yl)-2-(methylthio)thiazolo[4,5-d]pyrimidin-7-amine] | 1 to 10 | 10 to 100 | ≤ 10 | 100 to 500 |
| Cc1cc(Nc2nc(C(F)(F)c3ccc(F)cc3)nc3nc(N4CCCC4)sc23)n[nH]1 [Example 36, 5-(difluoro(4-fluorophenyl)methyl)-N-(5-methyl-1H-pyrazol-3-yl)-2-(pyrrolidin-1-yl)thiazolo[4,5-d]pyrimidin-7-amine] | ≤ 1 | 10 to 100 | ≤ 10 | 100 to 500 |
| Cc1cc(Nc2nc(C(F)(F)c3ccc(F)cc3)nc3nc(N4CCOCC4)sc23)n[nH]1 [Example 37, 5-(difluoro(4-fluorophenyl)methyl)-N-(5-methyl-1H-pyrazol-3-yl)-2-morpholinothiazolo[4,5-d]pyrimidin-7-amine] | ≤ 1 | ≤ 10 | ≤ 10 | 100 to 500 |
| Cc1cc(Nc2nc(C(F)(F)c3ccc(F)cc3)nc3nc(N4CCN(C)CC4)sc23)n[nH]1 [Example 38, 5-(difluoro(4-fluorophenyl)methyl)-N-(5-methyl-1H-pyrazol-3-yl)-2-(4-methylpiperazin-1-yl)thiazolo[4,5-d]pyrimidin-7-amine] | 1 to 10 | ≤ 10 | ≤ 10 | ≤ 100 |
| COc1nc2nc(C(F)(F)c3ccc(F)cc3)nc(Nc3cc(C)[nH]n3)c2s1 [Example 39, 5-(difluoro(4-fluorophenyl)methyl)-2-methoxy-N-(5-methyl-1H-pyrazol-3-yl)thiazolo[4,5-d]pyrimidin-7-amine] | 1 to 10 | 10 to 100 | ≤ 10 | 100 to 500 |
| Cc1cc(Nc2nc(C(F)(F)c3ccc(F)cc3)nc3nc(C#N)sc23)n[nH]1 [Example 40, 5-(difluoro(4-fluorophenyl)methyl)-7-(5-methyl-1H-pyrazol-3-ylamino)thiazolo[4,5-d]pyrimidine-2-carbonitrile] | 1 to 10 | 10 to 100 | ≤ 10 | > 500 |

The next lines start with the values.

| Kd (JAK2) [nM] | Kd (JAK3) [nM] | Kd (TYK2) [nM] | IC50 [1] [nM] | Structure (SMILES) |
| --- | --- | --- | --- | --- |
| 1 to 10 | 10 to 100 | ≤ 10 | 100 to 500 | Cc1cc(Nc2nc(C(F)(F)c3ccc(F)cc3)nc3ncsc23)n[nH]1 [Example 41, 5-(difluoro(4-fluorophenyl)methyl)-N-(5-methyl-1H-pyrazol-3-yl)thiazolo[4,5-d]pyrimidin-7-amine] |
| 1 to 10 | ≤ 10 | ≤ 10 | 100 to 500 | CNc1nc2nc(C(F)(F)c3ccc(F)cc3)nc(Nc3cc(C)[nH]n3)c2s1 [Example 42, 5-(difluoro(4-fluorophenyl)methyl)-N2-methyl-N7-(5-methyl-1H-pyrazol-3-yl)thiazolo[4,5-d]pyrimidine-2,7-diamine] |
| > 10 | > 100 | 10 to 100 | 100 to 500 | CCn1ncc2c(Nc3cc(C)[nH]n3)nc(Sc3ccc(F)cc3)nc21 [Example 43, 1-ethyl-6-((4-fluorophenyl)thio)-N-(5-methyl-1H-pyrazol-3-yl)-1H-pyrazolo[3,4-d]pyrimidin-4-amine] |
| ≤ 1 | ≤ 10 | ≤ 10 | ≤ 100 | Cc1cc(Nc2nc(C(F)(F)c3ccc(F)cn3)nc3nn(C4CCCC4)cc23)n[nH]1 [Example 44, 2-cyclopentyl-6-(difluoro(5-fluoropyridin-2-yl)methyl)-N-(5-methyl-1H-pyrazol-3-yl)-2H-pyrazolo[3,4-d]pyrimidin-4-amine] |
